How the values were obtained:
[1] = system: rabbit serum obtained by immunizing a rabbit with the SARS-CoV strain Frankfurt 1; assay type: binding; set-up: Binding of a rabbit serum to linear peptides / Binding of a rabbit serum to looped peptides / Rabbit serum linear peptides / Rabbit serum looped peptides / Binding of a rabbit serum to linear peptides of protein N of SARS-CoV Urbani (Rabbit serum linear peptides) / Binding of a rabbit serum to looped/cyclic peptides of protein N of SARS-CoV Urbani (Rabbit serum looped peptides): unit not given here
[2] = system: antibodies in sera from SARS patients (sera 1a, 1b, 2, 6, 37, 62, London, SARS-yellow, SARS-green); assay type: binding, human; set-up: Binding of serum 6 to linear peptides of protein X1 of SARS-CoV Urbani / Binding of serum 37 to linear peptides of protein X1 of SARS-CoV Urbani / Binding of serum 6 to looped/cyclic peptide (PEPSCAN-ELISA) / Binding of serum 37 to looped/cyclic peptide (PEPSCAN-ELISA) / Binding of serum 37 to looped/cyclic peptides of protein X1 of SARS-CoV Urbani / Binding of serum 6 to linear peptides of protein X2 / Binding of serum 37 to linear peptides of protein X2 / Binding of serum 37 to looped/cyclic peptides of protein X2 of SARS-CoV Urbani / Binding of serum 6 to linear peptides of protein M of SARS-CoV Urbani / Binding of serum 37 to linear peptides of protein M of SARS-CoV Urbani / Binding of serum 6 to looped/cyclic peptides of protein M of SARS-CoV Urbani / Binding of serum 37 to looped/cyclic peptides of protein M of SARS-CoV Urbani / Binding of serum 6 to linear peptides of protein X3 of SARS-CoV Urbani / Binding of serum 37 to linear peptides of protein X3 of SARS-CoV Urbani / Binding of serum 37 to looped/cyclic peptides of protein X3 of SARS-CoV Urbani / Binding of serum 6 to linear peptides of protein X4 of SARS-CoV Urbani / Binding of serum 37 to linear peptides of protein X4 of SARS-CoV Urbani / Binding of serum 37 to looped/cyclic peptides of protein X4 of SARS-CoV Urbani / Binding of serum 6 to linear peptides of protein X5 of SARS-CoV Urbani / Binding of serum 37 to linear peptides of protein X5 of SARS-CoV Urbani / Binding of serum 37 to looped/cyclic peptides of protein X5 of SARS-CoV Urbani / Binding of serum 6 to linear peptides of protein N of SARS-CoV Urbani / Binding of serum 37 to linear peptides of protein N of SARS-CoV Urbani / Binding of serum 6 to linear peptide (PEPSCAN-ELISA) / Binding of serum 1a to looped/cyclic peptides of protein N of SARS-CoV Urbani / Binding of serum 1b to looped/cyclic peptides of protein N of SARS-CoV Urbani / Binding of serum 2 to looped/cyclic peptides of protein N of SARS-CoV Urbani / Binding of serum 6 to looped/cyclic peptides of protein N of SARS-CoV Urbani / Binding of serum 37 to looped/cyclic peptides of protein N of SARS-CoV Urbani / Binding of serum 62 to looped/cyclic peptides of protein N of SARS-CoV Urbani / Binding of serum London to looped/cyclic peptides of protein N of SARS-CoV Urbani / Binding of serum SARS-green to looped/cyclic peptides of protein N of SARS-CoV Urbani: unit not given here
[3] = system: control sera (pooled serum of ten healthy LUMC hospital workers; commercial negative donor pooled serum from the Dutch bloodbank); assay type: binding, human; set-up: Binding of Control serum LUMC to linear peptides / Binding of Control serum Blood-bank to linear peptides / Binding of Control serum LUMC to looped peptides / Binding of Control Serum Blood-Bank to Looped peptides / Binding of Control serum LUMC to linear peptides of the protein M of SARS-CoV Urbani / Binding of Control serum Blood-bank to linear peptides of the protein M of SARS-CoV Urbani / Binding of Control serum LUMC to looped peptides of the protein M of SARS-CoV Urbani / Binding of Control Serum Blood-Bank to Looped peptides of the protein M of SARS-CoV Urbani: unit not given here

LLEQWNLVIGFLFLA was tested, and the “Rabbit serum linear peptides” value [1] was 0.6, the “Rabbit serum looped peptides” value [1] was 0.0 and the “Binding of serum 1a to linear peptides of protein M of SARS-CoV Urbani” value [2] was 0.7. For the same sequence, the “Binding of serum 1a to looped/cyclic peptides of protein M of SARS-CoV Urbani” value [2] was 0.5, the “Binding of serum 1b to linear peptides of protein M of SARS-CoV Urbani” value [2] was 0.6 and the “Binding of serum 1b to looped/cyclic peptides of protein M of SARS-CoV Urbani” value [2] was 0.2. For the same sequence, the “Binding of serum 2 to linear peptides of protein M of SARS-CoV Urbani” value [2] was 0.4, the “Binding of serum 2 to looped/cyclic peptides of protein M of SARS-CoV Urbani” value [2] was 0.4 and the “Binding of serum 6 to linear peptides of protein M of SARS-CoV Urbani” value [2] was 0.2. The “Binding of serum 6 to looped/cyclic peptides of protein M of SARS-CoV Urbani” value [2] was 0.4, the “Binding of serum 37 to linear peptides of protein M of SARS-CoV Urbani” value [2] was 0.4 and the “Binding of serum 37 to looped/cyclic peptides of protein M of SARS-CoV Urbani” value [2] was 0.4. The “Binding of serum 62 to linear peptides of protein M of SARS-CoV Urbani” value [2] was 0.4, the “Binding of serum 62 to looped/cyclic peptides of protein M of SARS-CoV Urbani” value [2] was 0.4 and the “Binding of serum London to linear peptides of protein M of SARS-CoV Urbani” value [2] was 0.3. For the same sequence, the “Binding of serum London to looped/cyclic peptides of protein M of SARS-CoV Urbani” value [2] was 0.2, the “Binding of serum SARS-green to linear peptides of protein M of SARS-CoV Urbani” value [2] was 0.3 and the “Binding of serum SARS-green to looped/cyclic peptides of protein M of SARS-CoV Urbani” value [2] was 0.2. The “Binding of serum SARS-yellow to linear peptides of protein M of SARS-CoV Urbani” value [2] was 0.2, the “Binding of serum SARS-yellow to looped/cyclic peptides of protein M of SARS-CoV Urbani” value [2] was 0.4 and the “Binding of Control Serum Blood-Bank to Looped peptides of the protein M of SARS-CoV Urbani” value [3] was 0.2. The “Binding of Control serum Blood-bank to linear peptides of the protein M of SARS-CoV Urbani” value [3] was 0.5, the “Binding of Control serum LUMC to linear peptides of the protein M of SARS-CoV Urbani” value [3] was 0.4 and the “Binding of Control serum LUMC to looped peptides of the protein M of SARS-CoV Urbani” value [3] was 0.5.
In the case of LLFVTIYSHLLLVAA, the “Binding of a rabbit serum to linear peptides” value [1] was 0.1, the “Binding of a rabbit serum to looped peptides” value [1] was 0.5 and the “Binding of serum 1a to linear peptides of protein X1 of SARS-CoV Urbani” value [2] was 0.7. For the same sequence, the “Binding of serum 1a to looped/cyclic peptide (PEPSCAN-ELISA)” value [2] was 0.4, the “Binding of serum 1b to linear peptides of protein X1 of SARS-CoV Urbani” value [2] was 0.2 and the “Binding of serum 1b to looped/cyclic peptide (PEPSCAN-ELISA)” value [2] was 0.3. For the same sequence, the “Binding of serum 2 to linear peptides of protein X1 of SARS-CoV Urbani” value [2] was 0.5, the “Binding of serum 2 to looped/cyclic peptide (PEPSCAN-ELISA)” value [2] was 0.3 and the “Binding of serum 6 to linear peptides of protein X1 of SARS-CoV Urbani” value [2] was 0.4. The “Binding of serum 6 to looped/cyclic peptide (PEPSCAN-ELISA)” value [2] was 0.2, the “Binding of serum 37 to linear peptides of protein X1 of SARS-CoV Urbani” value [2] was 0.6 and the “Binding of serum 37 to looped/cyclic peptide (PEPSCAN-ELISA)” value [2] was 0.4. For the same sequence, the “Binding of serum 62 to linear peptides of protein X1 of SARS-CoV Urbani” value [2] was 0.5, the “Binding of serum 62 to looped/cyclic peptide (PEPSCAN-ELISA)” value [2] was 0.5 and the “Binding of serum London to linear peptides of protein X1 of SARS-CoV Urbani” value [2] was 0.2. For the same sequence, the “Binding of serum London to looped/cyclic peptide (PEPSCAN-ELISA)” value [2] was 0.2, the “Binding of serum SARS-green to linear peptides of protein X1 of SARS-CoV Urbani” value [2] was 0.3 and the “Binding of serum SARS-green to looped/cyclic peptide (PEPSCAN-ELISA)” value [2] was 0.2. The “Binding of serum SARS-yellow to linear peptides of protein X1 of SARS-CoV Urbani” value [2] was 0.3, the “Binding of serum SARS-yellow to looped/cyclic peptide (PEPSCAN-ELISA)” value [2] was 0.4 and the “Binding of Control Serum Blood-Bank to Looped peptides” value [3] was 0.4. The “Binding of Control serum Blood-bank to linear peptides” value [3] was 0.5, the “Binding of Control serum LUMC to linear peptides” value [3] was 0.4 and the “Binding of Control serum LUMC to looped peptides” value [3] was 0.6.
With LLKEPCPSGTYEGNS the “Rabbit serum linear peptides” value [1] was 0.3, the “Rabbit serum looped peptides” value [1] was 0.1 and the “Binding of serum 1a to linear peptides of protein X4 of SARS-CoV Urbani” value [2] was 0.8. The “Binding of serum 1a to looped/cyclic peptides of protein X4 of SARS-CoV Urbani” value [2] was 0.8, the “Binding of serum 1b to linear peptides of protein X4 of SARS-CoV Urbani” value [2] was 0.6 and the “Binding of serum 1b to looped/cyclic peptides of protein X4 of SARS-CoV Urbani” value [2] was 0.6. The “Binding of serum 2 to linear peptides of protein X4 of SARS-CoV Urbani” value [2] was 0.3, the “Binding of serum 2 to looped/cyclic peptides of protein X4 of SARS-CoV Urbani” value [2] was 0.6 and the “Binding of serum 6 to linear peptides of protein X4 of SARS-CoV Urbani” value [2] was 0.6. For the same sequence, the “Binding of serum 6 to looped/cyclic peptides of protein X4 of SARS-CoV Urbani” value [2] was 0.7, the “Binding of serum 37 to linear peptides of protein X4 of SARS-CoV Urbani” value [2] was 0.6 and the “Binding of serum 37 to looped/cyclic peptides of protein X4 of SARS-CoV Urbani” value [2] was 0.7. For the same sequence, the “Binding of serum 62 to linear peptides of protein X4 of SARS-CoV Urbani” value [2] was 0.8, the “Binding of serum 62 to looped/cyclic peptides of protein X4 of SARS-CoV Urbani” value [2] was 0.5 and the “Binding of serum London to linear peptides of protein X4 of SARS-CoV Urbani” value [2] was 0.8. The “Binding of serum London to looped/cyclic peptides of protein X4 of SARS-CoV Urbani” value [2] was 0.3, the “Binding of serum SARS-green to linear peptides of protein X4 of SARS-CoV Urbani” value [2] was 0.5 and the “Binding of serum SARS-green to looped/cyclic peptides of protein X4 of SARS-CoV Urbani” value [2] was 0.7. The “Binding of serum SARS-yellow to linear peptides of protein X4 of SARS-CoV Urbani” value [2] was 0.2, the “Binding of serum SARS-yellow to looped/cyclic peptides of protein X4 of SARS-CoV Urbani” value [2] was 0.2 and the “Binding of Control Serum Blood-Bank to Looped peptides” value [3] was 0.6. The “Binding of Control serum Blood-bank to linear peptides” value [3] was 0.6, the “Binding of Control serum LUMC to linear peptides” value [3] was 0.6 and the “Binding of Control serum LUMC to looped peptides” value [3] was 0.8.
LLNVPLRGTIVTRPL was tested, and the “Rabbit serum linear peptides” value [1] was 0.4, the “Rabbit serum looped peptides” value [1] was 0.0 and the “Binding of serum 1a to linear peptides of protein M of SARS-CoV Urbani” value [2] was 0.8. For the same sequence, the “Binding of serum 1b to linear peptides of protein M of SARS-CoV Urbani” value [2] was 0.5, the “Binding of serum 2 to linear peptides of protein M of SARS-CoV Urbani” value [2] was 0.5 and the “Binding of serum 6 to linear peptides of protein M of SARS-CoV Urbani” value [2] was 0.5. For the same sequence, the “Binding of serum 37 to linear peptides of protein M of SARS-CoV Urbani” value [2] was 0.6, the “Binding of serum 62 to linear peptides of protein M of SARS-CoV Urbani” value [2] was 0.7 and the “Binding of serum London to linear peptides of protein M of SARS-CoV Urbani” value [2] was 0.4. For the same sequence, the “Binding of serum SARS-green to linear peptides of protein M of SARS-CoV Urbani” value [2] was 0.3, the “Binding of serum SARS-yellow to linear peptides of protein M of SARS-CoV Urbani” value [2] was 0.1 and the “Recognition of the peptide by sera of SARS-CoV infected individuals, and form (linear, looped/cyclic) in which it is recognized” value [2] was “recognized in looped/cyclic form”. The “Binding of Control Serum Blood-Bank to Looped peptides of the protein M of SARS-CoV Urbani” value [3] was 0.9, the “Binding of Control serum Blood-bank to linear peptides of the protein M of SARS-CoV Urbani” value [3] was 0.7 and the “Binding of Control serum LUMC to linear peptides of the protein M of SARS-CoV Urbani” value [3] was 0.4. The “Binding of Control serum LUMC to looped peptides of the protein M of SARS-CoV Urbani” value [3] was 0.5.
